Measurements from ChEMBL document CHEMBL5620375, “Tetrahydrobenzo[h]quinoline derivatives as a novel chemotype for dual antileishmanial-antimalarial activity graced with antitubercular activity: Design, synthesis and biological evaluation” (Eur J Med Chem, 2023).
≈ marks a conversion by molar mass, not a printed value.

How the values were obtained:
[1] = system: Plasmodium berghei; assay: Antimalarial activity against Plasmodium berghei ANKA infected in mouse assessed as mean survival time at 48.4 microM/Kg,po measured after 96 hrs; format: functional
[2] = system: Plasmodium berghei; assay: Antimalarial activity against Plasmodium berghei ANKA infected in mouse assessed as parasitemia at 48.4 microM/Kg,po measured after 96 hrs by giemsa staining analysis relative to control; format: functional; conditions: at 48.4 µmol/kg
[3] = system: Leishmania major; assay: Antileishmanial activity against Leishmania major amastigotes assessed as inhibition of parasite growth incubated for 72 hrs by resazurin reagent based ELISA; format: functional, organism-based
[4] = system: Plasmodium falciparum; assay: Antimalarial activity against chloroquine-resistant Plasmodium falciparum RKL9 assessed as inhibition of parasite growth incubated for 24 hrs by giemsa staining analysis; format: functional, organism-based; conditions: RKL9, 24 h
[5] = system: Mycobacterium tuberculosis; assay: Antitubercular activity against Mycobacterium tuberculosis H37Ra assessed as inhibition of bacterial growth by microplate alamar blue assay; format: functional
[6] = system: Plasmodium berghei; assay: Antimalarial activity against Plasmodium berghei ANKA infected in mouse assessed as reduction in parasite growth at 48.4 microM/Kg,po measured after 96 hrs by giemsa staining analysis; format: functional; set-up: scale not given: the % may be the effect or the level left; conditions: at 48.4 µmol/kg
[7] = system: Leishmania major; assay: Antileishmanial activity against Leishmania major promastigotes assessed as inhibition of parasite growth incubated for 48 hrs by alamar blue reagent based ELISA; format: functional, organism-based
[8] = system: Leishmania major; assay: Antileishmanial activity against Leishmania major promastigotes assessed as parasite survival at 100 uM incubated for 48 hrs in presence of 100 uM of folic acid by alamar blue reagent based ELISA relative to control
[9] = system: Leishmania major; assay: Antileishmanial activity against Leishmania major promastigotes assessed as parasite survival at 100 uM incubated for 48 hrs by alamar blue reagent based ELISA relative to control
[10] = Selectivity index, ratio of CC50 for cytotoxicity against African green monkey Vero cells to IC50 for antimalarial activity against chloroquine-resistant Plasmodium falciparum RKL9; format: toxicity, cell-based; conditions: read-out: Ratio CC50/IC50
[11] = system: Leishmania major; assay: Antileishmanial activity against Leishmania major promastigotes assessed as parasite survival incubated for 48 hrs in presence of 100 uM of folinic acid by alamar blue reagent based ELISA relative to control; format: functional
[12] = system: Leishmania major; assay: Antileishmanial activity against Leishmania major promastigotes assessed as parasite survival incubated for 48 hrs by alamar blue reagent based ELISA relative to control; format: functional
[13] = system: Leishmania major; assay: Antileishmanial activity against Leishmania major promastigotes assessed as parasite survival incubated for 48 hrs in presence of 20 uM of folic acid by alamar blue reagent based ELISA relative to control; format: functional
[14] = Acute toxicity in mouse assessed as signs of toxicity at 25 to 150 mg/kg,po administrated for 3 days; format: organism-based; conditions: in vivo, 72 h, dose 25-150 mg/kg, time 3 day
[15] = Selectivity index, ratio of CC50 for cytotoxicity against African green monkey Vero cells to MIC for antitubercular activity against Mycobacterium tuberculosis H37Ra; format: toxicity, cell-based; conditions: read-out: Selectivity Index
[16] = Cytotoxicity against African green monkey Vero cells incubated for 72 hrs by crystal violet staining based assay; format: toxicity, cell-based; conditions: chlorocebus sabaeus
[17] = Acute toxicity in mouse assessed as change in body weight at 25 to 150 mg/kg,po administrated for 3 days; format: organism-based; conditions: in vivo, 72 h, dose 25-150 mg/kg, time 3 day
[18] = system: Leishmania major; assay: Antileishmanial activity against Leishmania major promastigotes assessed as parasite survival incubated for 48 hrs in presence of 100 uM of folic acid by alamar blue reagent based ELISA relative to control; format: functional
[19] = Selectivity index, ratio of CC50 for cytotoxicity against African green monkey Vero cells to IC50 for antileishmanial activity against Leishmania major; format: toxicity, cell-based; conditions: read-out: Ratio CC50/IC50
[20] = system: Leishmania major; assay: Antileishmanial activity against Leishmania major promastigotes assessed as parasite survival incubated for 48 hrs in presence of 20 uM of folinic acid by alamar blue reagent based ELISA relative to control; format: functional
[21] = system: Mycobacterium tuberculosis; assay: Antitubercular activity against XDR Mycobacterium tuberculosis RCMB 2674 assessed as inhibition of bacterial growth by microplate alamar blue assay; format: functional

SMILES	Survival [1] [days]	Activity [2] [%]	IC50 [3] [µM]	IC50 [4] [µM]	MIC [5] [µM]	Activity [6] [%]	IC50 [7] [µM]	further results
COc1cc(-c2c3c([nH]c(=O)c2C#N)-c2ccccc2CC3)cc(OC)c1OC	12.4	8	3.68	0.096	20.1 (≈ 7.81 µg/mL)	91.11	2.52	–
COc1cc(Cc2cnc(N)nc2N)cc(OC)c1OC [TRIMETHOPRIM]	–	–	–	–	–	–	–	survival at 100 µM [8]: 99%; survival at 100 µM [9]: 71%
COc1ccc(-c2c3c([nH]c(=O)c2C#N)-c2ccccc2CC3)cc1OC	8.66	38	4.68	–	10.9 (≈ 3.9 µg/mL)	57.78	2.24	–
COc1cc(-c2c3c([nH]c(=O)c2C#N)-c2ccccc2CC3)ccc1O	–	2	0.695	0.019	90.7 (≈ 31.2 µg/mL)	97.78	0.577	selectivity ratio [10]: 18300; Survival [11]: 89%; Survival [12]: 22%; Survival [13]: 76%; Activity [14]: Non-Toxic; selectivity ratio [15]: 4; CC50 at 72 h [16]: 363 µM; Activity [17]: Non-Toxic; Survival [18]: 85%; selectivity ratio [19]: 629; Survival [20]: 78%
COc1cccc(-c2c3c([nH]c(=O)c2C#N)-c2ccccc2CC3)c1	10.66	11	4.88	–	23.8 (≈ 7.81 µg/mL)	87.78	4.15	–
COc1ccccc1-c1c2c([nH]c(=O)c1C#N)-c1ccccc1CC2	6.5	42	6.29	–	2.98 (≈ 0.979 µg/mL)	53.33	5.49	selectivity ratio [15]: 127; CC50 at 72 h [16]: 381 µM; selectivity ratio [19]: 60.6; MIC [21]: 23.8 µM (≈ 7.82 µg/mL)
N#Cc1c(-c2ccc(Cl)cc2Cl)c2c([nH]c1=O)-c1ccccc1CC2	4.5	32	6	–	5.31 (≈ 1.95 µg/mL)	64.44	5.3	MIC [21]: > 342 µM
Cc1cccc(-c2c3c([nH]c(=O)c2C#N)-c2ccccc2CC3)c1	9.33	18	5.58	–	100 (≈ 31.2 µg/mL)	80	3.46	–
COc1ccc(-c2c3c([nH]c(=O)c2C#N)-c2ccccc2CC3)cc1	9.66	26	4.7	–	11.9 (≈ 3.9 µg/mL)	71.11	3.9	–
N#Cc1c(-c2ccccc2Br)c2c([nH]c1=O)-c1ccccc1CC2	7.33	36	3.83	–	10.3 (≈ 3.9 µg/mL)	60	2.11	–
CC(=O)N1CCC(C(=O)NCc2ccc3c(c2)-c2[nH]c(=O)c(C#N)c(-c4cc(C(F)(F)F)ccc4Cl)c2CC3)CC1	5.66	56	3.26	–	53.6 (≈ 31.2 µg/mL)	37.78	1.24	–
N#Cc1c(-c2ccccc2[N+](=O)[O-])c2c([nH]c1=O)-c1ccccc1CC2	8.83	17	5.63	–	–	81.11	4.22	–
N#Cc1c(-c2cccs2)c2c([nH]c1=O)-c1ccccc1CC2	–	2	4.86	0.021	12.8 (≈ 3.9 µg/mL)	97.78	2.64	Activity [14]: Non-Toxic; Activity [17]: Non-Toxic
COc1ccc(OC)c(-c2c3c([nH]c(=O)c2C#N)-c2ccccc2CC3)c1	–	5	2.98	0.089	5.44 (≈ 1.95 µg/mL)	94.44	2.33	MIC [21]: 175 µM (≈ 62.6 µg/mL)
CC(=O)N1CCC(C(=O)NCc2ccc3c(c2)-c2[nH]c(=O)c(C#N)c(-c4cc(Cl)ccc4Cl)c2CC3)CC1	–	3	0.502	0.039	28.4 (≈ 15.6 µg/mL)	96.67	0.409	selectivity ratio [10]: 11800; Survival [11]: 94%; Survival [12]: 24%; Survival [13]: 78%; Activity [14]: Non-Toxic; selectivity ratio [15]: 16; CC50 at 72 h [16]: 455 µM; Activity [17]: Non-Toxic; Survival [18]: 88%; selectivity ratio [19]: 1110; Survival [20]: 82%
N#Cc1c(O)nc2c(c1-c1cccc([N+](=O)[O-])c1)CCc1ccccc1-2	7.66	28	3.97	–	5.67 (≈ 1.95 µg/mL)	68.89	2.89	MIC [21]: 91.1 µM (≈ 31.3 µg/mL)
NNC(=O)c1ccncc1 [ISONIAZID]	–	–	–	–	0.875 (≈ 0.12 µg/mL)	–	–	–
COc1ccc(-c2c3c([nH]c(=O)c2C#N)-c2ccccc2CC3)cc1O	7.33	33	3.7	–	5.66 (≈ 1.95 µg/mL)	63.33	1.4	MIC [21]: 182 µM (≈ 62.6 µg/mL)
CCc1nc(N)nc(N)c1-c1ccc(Cl)cc1 [PYRIMETHAMINE]	–	0	–	0.013	–	100	–	–
CCN(CC)CCCC(C)Nc1ccnc2cc(Cl)ccc12.O=P(O)(O)O.O=P(O)(O)O (configuration not stated) [CHLOROQUINE PHOSPHATE]	13.12	0	–	–	–	100	–	–
